This assay has as its system neuronal activity marker phosphorylated-ERK (pERK). The assay is described as follows: Whole brain activity profiling, pERK/tERK immunolabeling and MAP-mapping. The assay is classed as in vivo, Zebrafish (Danio rerio). Here is the method: To investigate how AS1 might alter central nervous system activity in the presence of nociceptive stimuli, whole brain activity profiling with the neuronal activity marker phosphorylated-ERK (pERK) was performed. Briefly, 6 dpf larval zebrafish were exposed to noxious heat (37.5° C.) or rearing temperature (28.5° C.) in the presence of vehicle or AS1 (either 2.5 or 5 μM) for 15 minutes. Immunolabeling was then performed to detect both total ERK (tERK) and phosphorylated ERK (pERK) (FIG. 8). Volumetric z-stacks of the entire brain of each fish were taken upon a confocal microscope, registered to a reference brain, and smoothed using an ImageJ script. […] Brains from each experimental condition (AS1+28.5° C., Vehicle+37.5° C., and AS1+37.5° C.) with Vehicle+28.5° C. were initially compared to determine how activity under these experimental conditions differed from the baseline state, then the total change in signal in each brain region were subtracted for AS1+28.5° C. and Vehicle+37.5° C. treated fish from AS1+37.5° C. treated fish. This was done to look for brain regions specifically activated in the presence of the noxious stimulus and AS1, reasoning that these areas would drive attraction to noxious stimuli.
pERK Immunolabeling. […]

Structures are written as SMILES.

Turning to `CC(C)c1ccc(C(=O)Nc2ccncc2)cc1` [AS1, 4-propan-2-yl-N-pyridin-4-ylbenzamide], the “share of the top 25 most active regions that are subpallial/dopaminergic populations” value (AS1 + noxious heat (37.5° C.)) was 64%. Also, where the note is “AS1-treated fish not exposed to noxious heat (28.5° C.)”, the “brain regions recruited by AS1 alone” value was “primarily recruited neuron clusters within the mesencephalon and rhombencephalon”.

The record behind these values is US20250177366A1, “COMPOSITIONS AND METHODS FOR ALLEVIATING PAIN AND REDUCING ADVERSIVENESS OF STIMULI” (UNIVERSITY OF WASHINGTON, priority 2021, published 2025).
